Read-outs that look alike come from different tables or passages of the source. Numbered stars: 1 amine (or outer) side, 2 acyl side, 3 side chain; on linkers, the order of the positions; unused ones are H or OH. Square brackets hold non-standard residues; d marks the D form. Side chains are listed from the residue outwards. Peptide text beside a SMILES is read from it. * marks the point of attachment. γGlu = O=C(O)[C@H](CCC(=O)[*:2])N[*:1]; αMeF = C[C@](N)(Cc1ccccc1)C(=O)O; αMeK = C[C@](N)(CCCCN)C(=O)O; Lauroyl = CCCCCCCCCCCC(=O)*; αMeS = C[C@](N)(CO)C(=O)O; AEEA = NCCOCCOCC(=O)O; Aib = CC(C)(N)C(=O)O
What was measured:
[1] = target: T1, human GLP-1 receptor (GLP-1R) (Homo sapiens, UniProt P43220); assay: cAMP assay, human GLP-1R cells; assay type: cell-based; conditions: bis-lipidated peptides
T1 construct: expressed in transfected cells
Summary of the method: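 Peptide-stimulated cAMP measured by two-step HTRF after a 30 min room-temperature incubation with receptor-expressing cells (hGLP-1R, hGIPR at 1×10^5 cells/ml; hGCGR at 2×10^5 cells/ml). Duplicate dilutions; EC50 from 4-parameter logistic fit of % Delta F.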

trypsin = target: T2, trypsin (Sus scrofa, UniProt P00761); assay: Proteolytic resistance to trypsin (% remaining intact peptide, RP-HPLC AUC); assay type: in vitro ADME; conditions: pig, porcine pancreatic trypsin, 37° C., pH 7.8, read-out: Percentage remaining intact peptide (AUC by RP-HPLC) upon incubation with trypsin; for remaining at 0.5 h: t = 30 min; for remaining at 1 h: t = 1 hr; for remaining at 2 h: t = 2 hr; for remaining at 4 h: t = 4 hr; for remaining at 8 h: t = 8 hr
T2 construct: purchased Sigma T7409
Excerpt: Ratio enzyme (units):peptide (μmoles)˜1:11. […] Ratio enzyme (units):peptide (μmoles)˜1.2:1.

Neprilysin = target: T3, Neprilysin (Homo sapiens, UniProt P08473); assay: Proteolytic resistance to neprilysin (% remaining peptide, RP-HPLC AUC); assay type: in vitro ADME; conditions: 37° C., pH 8.3; for remaining at 0.5 h: t = 30 min; for remaining at 1 h: t = 1 hr; for remaining at 4 h: t = 4 hr; for remaining at 8 h: t = 8 hr; for remaining at 24 h: t = 24 hr, read-out: Percentage remaining peptide (AUC at specified time-point by RP-HPLC) upon incubation with neprilysin, t = 24 hr
T3 construct: purchased R&D Systems 1182-ZNC-010
Procedure: Ratio enzyme (units):peptide (μmoles)˜1:33. […] Ratio enzyme (units):peptide (μmoles)˜1:2.5.
15 μL aliquots (˜15 μg initial peptide) of the peptide-enzyme mixture were periodically withdrawn (t=0, 30 mins, 1 hr, 2 hr, 4 hr, 8 hr, 24 hr) and quenched immediately by addition to an equal volume (15 μL) of 5% TFA (v/v) in 1:1 water/acetonitrile to arrest proteolytic activity. 20 μL aliquots (˜10 μg initial peptide) were analyzed by LC/MS and/or analytical RP-HPLC as follows: LC/MS method: Agilent Polaris C8-A column (4.6×100 mm, 3 micron) eluted with a linear binary gradient of 10-90% MeCN (0.1% TFA v/v) in water (0.1% TFA v/v) over 30 mins at 1.5 mL min-1 at ambient temperature with detection by both UV absorption at 210 nm and ionization using a Waters 3100 mass detector (ESI+ mode). Peptide fragments deriving from enzymatic hydrolysis were identified by molecular weight, allowing location of the site of cleavage. Analytical RP-HPLC method: Agilent Polaris C8-A column (4.6×100 mm, 3 micron) eluted with a linear binary gradient of 10-90% MeCN (0.1% TFA v/v) in water (0.1% TFA v/v) over either 10 or 15 mins at 1.5 mL min^−1 at 40° C. with detection by UV absorption at 210 nm. Manual integration (AUC) allowed estimation of remaining intact peptide over the time course of the experiment.
25 μL aliquots (˜6 μg initial peptide) were analyzed by LC/MS and/or analytical RP-HPLC as follows: LC/MS method: Agilent Polaris C8-A column (4.6×100 mm, 3 micron) eluted with a linear binary gradient of 10-90% MeCN (0.1% TFA v/v) in water (0.1% TFA v/v) over 30 mins at 1.5 mL min^−1 at ambient temperature with detection by both UV absorption at 210 nm and ionization using a Waters 3100 mass detector (ESP mode). Peptide fragments deriving from enzymatic hydrolysis were identified by molecular weight, allowing location of the site of cleavage. Analytical RP-HPLC method: Agilent Polaris C8-A column (4.6×100 mm, 3 micron) eluted with a linear binary gradient of 10-90% MeCN (0.1% TFA v/v) in water (0.1% TFA v/v) over either 10 or 15 mins at 1.5 mL min^−1 at 40° C. with detection by UV absorption at 210 nm. Manual integration (AUC) allowed estimation of remaining intact peptide over the time course of the experiment.

GLP-1R (INS1e assay) = target: T4, GLP-1R (INS1e assay) (Rattus norvegicus, UniProt P32301); assay: INS1e assay, cAMP activity at GLP-1R; assay type: cell-based; conditions: bis-lipidated peptides
T4 construct: endogenous in cells; host or cells: INS-1E cells
T4 sequence (P32301 22-463): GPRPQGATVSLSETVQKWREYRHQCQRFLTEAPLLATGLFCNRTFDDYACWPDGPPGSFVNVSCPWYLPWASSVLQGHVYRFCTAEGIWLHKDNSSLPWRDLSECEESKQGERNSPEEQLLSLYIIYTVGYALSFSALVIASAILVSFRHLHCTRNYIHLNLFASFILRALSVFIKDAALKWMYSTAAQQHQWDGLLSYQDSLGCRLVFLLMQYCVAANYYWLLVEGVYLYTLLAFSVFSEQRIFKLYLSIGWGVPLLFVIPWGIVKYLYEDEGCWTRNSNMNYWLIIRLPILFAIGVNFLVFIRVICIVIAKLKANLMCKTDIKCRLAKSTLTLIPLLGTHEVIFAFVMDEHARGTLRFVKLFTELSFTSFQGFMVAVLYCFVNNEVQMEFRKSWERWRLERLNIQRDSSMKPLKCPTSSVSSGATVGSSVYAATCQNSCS
Summary of the method: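 It pairs cAMP-d2 acceptor with anti-cAMP cryptate donor, both prepared 1/20 in conjugate/lysis buffer, applied as a two-step protocol.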

pepsin = target: T5, pepsin (Sus scrofa, UniProt P00791); assay: Proteolytic resistance to pepsin (% remaining intact peptide, RP-HPLC AUC); assay type: in vitro ADME; conditions: pig, porcine pepsin, 37° C., pH 2.0, read-out: Percentage remaining intact peptide (AUC by RP-HPLC) upon incubation with pepsin; for remaining at 0.5 h: t = 30 min; for remaining at 1 h: t = 1 hr; for remaining at 2 h: t = 2 hr; for remaining at 4 h: t = 4 hr; for remaining at 8 h: t = 8 hr; for remaining at 24 h: t = 24 hr
T5 construct: purchased Sigma P7012
Procedure: Lyophilized porcine […] pepsin (Sigma: P7012) was reconstituted to afford a solution of 200 μg/mL (˜500 units/mL) in assay buffer (0.1 M HCl, pH 2.0) to give the enzyme stock solution. […] Ratio enzyme (units):peptide (μmoles)˜1:6. […] Ratio enzyme (units):peptide (μmoles)˜2:1.
Lyophilized porcine […] pepsin (Sigma: P7012) was reconstituted to 200 μg/mL (˜500 units/mL) in assay buffer (1.0 M HCl, pH 2.0) to give the enzyme stock solution.

[2] = Proteolytic resistance to fasted-state simulated intestinal fluid (FASSIF/Pancreatin); assay type: in vitro ADME; conditions: 37° C., read-out: Percentage remaining intact peptide (AUC by RP-HPLC) upon incubation with fasted-state simulated intestinal fluid (FASSIF/P)
Procedure: A fresh suspension of FASSIF/P (Fasted-State Simulated Intestinal Fluid+USP Pancreatin®) was prepared according to that described by Galia, Nicolaides, Hörter, Löbenberg, Reppas and Dressman: Pharm. Res. 15 (1998) 698-705. The resulting preparation is proteolytically equivalent to ˜375 units/mL (375 kU/L) and was used immediately without storage. Peptides for evaluation (1.0 mg, ˜250 nmoles) were initially dissolved in pre-warmed FASSIF without Pancreatin® (200 μL) to which was added pre-warmed fresh FASSIF/Pancreatin® (100 μL) to initiate potential digestion. Following momentary vortexing of the Eppendorf reaction tube the mixture was incubated at 37° C. in a thermostatic waterbath for the duration of the experiment. 25 μL aliquots of the co-incubated peptide-enzyme mixture were periodically withdrawn (t=0, 5 m, 10 m, 15 m, 30 m, 1 h, 2 h) and quenched immediately by addition to a solution of 10% TFA in 1:1 water/acetonitrile (75 μL) to arrest proteolytic activity.

[3] = mean of n1 and n2, read-out: Primary assay EC50 Mean pM GLP-1R
[4] = replicate n2, read-out: Primary assay EC50 GLP-1R n2
[5] = mean of n1 and n2, read-out: INS1e assay EC50 Mean pM GLP-1R
[6] = replicate n1, read-out: INS1e assay EC50 GLP-1R n1
[7] = replicate n2, read-out: INS1e assay EC50 GLP-1R n2

T2 sequence (P00761 9-231): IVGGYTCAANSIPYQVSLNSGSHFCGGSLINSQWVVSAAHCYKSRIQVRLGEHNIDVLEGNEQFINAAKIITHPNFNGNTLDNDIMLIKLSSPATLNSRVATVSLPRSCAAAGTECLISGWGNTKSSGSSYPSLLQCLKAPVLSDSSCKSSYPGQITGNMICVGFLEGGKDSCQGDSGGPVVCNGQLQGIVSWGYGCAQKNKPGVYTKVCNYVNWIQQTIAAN
T1 sequence (P43220 24-463): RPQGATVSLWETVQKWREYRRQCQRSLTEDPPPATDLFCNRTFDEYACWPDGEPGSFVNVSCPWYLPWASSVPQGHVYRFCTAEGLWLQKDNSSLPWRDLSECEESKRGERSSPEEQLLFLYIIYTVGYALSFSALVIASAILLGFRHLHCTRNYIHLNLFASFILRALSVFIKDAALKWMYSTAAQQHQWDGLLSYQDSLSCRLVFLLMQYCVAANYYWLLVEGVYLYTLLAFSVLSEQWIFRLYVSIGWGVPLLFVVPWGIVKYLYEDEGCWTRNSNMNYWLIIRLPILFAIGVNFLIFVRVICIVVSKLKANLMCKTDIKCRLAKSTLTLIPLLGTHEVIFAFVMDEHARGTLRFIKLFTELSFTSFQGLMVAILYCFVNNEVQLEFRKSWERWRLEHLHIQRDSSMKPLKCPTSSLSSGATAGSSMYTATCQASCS
T3 sequence (P08473 whole entry): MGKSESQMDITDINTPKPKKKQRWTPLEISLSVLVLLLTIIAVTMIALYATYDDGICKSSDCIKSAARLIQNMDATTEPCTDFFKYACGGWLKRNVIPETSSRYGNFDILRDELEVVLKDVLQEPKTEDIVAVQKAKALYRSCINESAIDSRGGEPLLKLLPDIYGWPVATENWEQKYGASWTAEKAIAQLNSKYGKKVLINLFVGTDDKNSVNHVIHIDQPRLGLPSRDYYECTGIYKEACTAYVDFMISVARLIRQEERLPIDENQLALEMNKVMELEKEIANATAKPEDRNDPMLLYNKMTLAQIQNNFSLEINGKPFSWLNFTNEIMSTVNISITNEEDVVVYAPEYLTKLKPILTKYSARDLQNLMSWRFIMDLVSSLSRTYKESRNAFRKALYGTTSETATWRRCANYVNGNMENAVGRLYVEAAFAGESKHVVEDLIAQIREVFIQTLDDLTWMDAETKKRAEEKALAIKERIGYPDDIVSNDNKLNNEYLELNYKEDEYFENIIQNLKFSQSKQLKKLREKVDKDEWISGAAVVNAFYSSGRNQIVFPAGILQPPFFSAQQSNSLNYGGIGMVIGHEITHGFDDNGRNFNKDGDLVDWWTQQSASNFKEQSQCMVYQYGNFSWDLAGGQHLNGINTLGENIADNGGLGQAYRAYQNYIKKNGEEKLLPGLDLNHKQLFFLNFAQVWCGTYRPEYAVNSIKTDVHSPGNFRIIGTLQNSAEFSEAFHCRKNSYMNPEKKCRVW
T5 sequence (P00791 60-385): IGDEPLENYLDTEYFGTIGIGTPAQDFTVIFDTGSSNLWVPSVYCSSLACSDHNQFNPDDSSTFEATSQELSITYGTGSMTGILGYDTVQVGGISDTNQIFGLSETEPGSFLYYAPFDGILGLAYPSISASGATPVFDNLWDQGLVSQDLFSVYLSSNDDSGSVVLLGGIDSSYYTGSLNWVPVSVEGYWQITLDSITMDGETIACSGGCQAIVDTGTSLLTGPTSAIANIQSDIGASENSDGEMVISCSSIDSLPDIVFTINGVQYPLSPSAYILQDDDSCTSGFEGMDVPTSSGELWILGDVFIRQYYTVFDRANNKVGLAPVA

For `CCCCCCCCCCCC(=O)N[C@@H](CCC(=O)NCCOCCOCC(=O)NCCOCCOCC(=O)NCCCC[C@H](NC(=O)[C@H](C)NC(=O)[C@@H](NC(=O)[C@H](Cc1ccccc1)NC(=O)[C@H](CCC(=O)O)NC(=O)[C@](C)(CCCCN)NC(=O)[C@H](C)NC(=O)[C@H](C)NC(=O)[C@H](CCC(=O)O)NC(=O)CNC(=O)[C@H](CCC(=O)O)NC(=O)[C@H](CC(C)C)NC(=O)[C@H](CCCCNC(=O)COCCOCCNC(=O)COCCOCCNC(=O)CC[C@H](NC(=O)CCCCCCCCCCC)C(=O)O)NC(=O)[C@H](CO)NC(=O)[C@](C)(CO)NC(=O)[C@@H](NC(=O)[C@H](CC(=O)O)NC(=O)[C@H](CO)NC(=O)[C@@H](NC(=O)[C@](C)(Cc1ccccc1)NC(=O)[C@H](CO)NC(=O)CNC(=O)[C@H](CCC(=O)O)NC(=O)C(C)(C)NC(=O)[C@@H](N)Cc1c[nH]cn1)[C@@H](C)O)C(C)C)[C@@H](C)CC)C(=O)N[C@H](C(=O)N[C@H](C(=O)N[C@@H](CCC(=O)O)C(=O)NCC(=O)NCC(N)=O)C(C)C)C(C)C)C(=O)O` [compound 263] (H-H[Aib]EGS[αMeF]TSDV[αMeS]SK([AEEA-AEEA-γGlu-Lauroyl])LEGEAA[αMeK]EFIAK([AEEA-AEEA-γGlu-Lauroyl])VVEGG-NH2), the EC50 [1, 3] was 1.2 pM, the EC50 [1, 4] was 1.45 pM and the remaining at 0.5 h (trypsin) was 98.9%. The remaining at 1 h (trypsin) was 97.2%, the remaining at 2 h (trypsin) was 94.8% and the remaining at 4 h (trypsin) was 89.8%. It also gave a remaining at 8 h (trypsin) of 85%, a remaining at 0.5 h (Neprilysin; recombinant neprilysin) of 98.3% and a remaining at 1 h (Neprilysin; recombinant neprilysin) of 99.5%. For the same compound, the remaining at 2 h (Neprilysin; recombinant neprilysin, t = 2 hr) was 97.7%, the remaining at 4 h (Neprilysin; recombinant neprilysin) was 92.3% and the remaining at 8 h (Neprilysin; recombinant neprilysin) was 91.2%. The remaining at 24 h (Neprilysin; recombinant neprilysin) was 91.9%, the “Percentage remaining peptide (AUC at specified time-point by RP-HPLC) upon incubation with neprilysin, t = 0” value (Neprilysin) was 100% and the EC50 (GLP-1R (INS1e assay); [5]) was 132 pM. It also gave an EC50 (GLP-1R (INS1e assay); [6]) of 120 pM, an EC50 (GLP-1R (INS1e assay); [7]) of 144 pM and a remaining at 0.5 h (pepsin) of 57.7%. The remaining at 1 h (pepsin) was 36%, the remaining at 2 h (pepsin) was 14.3% and the remaining at 4 h (pepsin) was 5.1%. It also gave a remaining at 8 h (pepsin) of 1.1%, a remaining at 24 h (pepsin) of 0% and a remaining at 5 min, […] ([2]; t = 5 m) of 93.1%. For the same compound, the remaining at 1 h, […] ([2]; t = 1 h) was 35.1%.
Work on `CCCCCCCCCCCC(=O)N[C@@H](CCC(=O)NCCOCCOCC(=O)NCCOCCOCC(=O)NCCCC[C@H](NC(=O)[C@H](C)NC(=O)[C@@H](NC(=O)[C@H](Cc1ccccc1)NC(=O)[C@H](CCC(=O)O)NC(=O)[C@](C)(CCCCN)NC(=O)[C@H](C)NC(=O)[C@H](C)NC(=O)[C@H](CCC(=O)O)NC(=O)CNC(=O)[C@H](CCC(=O)O)NC(=O)[C@H](CCCCNC(=O)COCCOCCNC(=O)COCCOCCNC(=O)CC[C@H](NC(=O)CCCCCCCCCCC)C(=O)O)NC(=O)[C@H](Cc1ccc(O)cc1)NC(=O)[C@H](CO)NC(=O)[C@](C)(CO)NC(=O)[C@@H](NC(=O)[C@H](CC(=O)O)NC(=O)[C@H](CO)NC(=O)[C@@H](NC(=O)[C@](C)(Cc1ccccc1)NC(=O)[C@H](CO)NC(=O)CNC(=O)[C@H](CCC(=O)O)NC(=O)C(C)(C)NC(=O)[C@@H](N)Cc1c[nH]cn1)[C@@H](C)O)C(C)C)[C@@H](C)CC)C(=O)N[C@H](C(=O)N[C@H](C(=O)N[C@@H](CCC(=O)O)C(=O)NCC(=O)NCC(N)=O)C(C)C)C(C)C)C(=O)O` [compound 269] (H-H[Aib]EGS[αMeF]TSDV[αMeS]SYK([AEEA-AEEA-γGlu-Lauroyl])EGEAA[αMeK]EFIAK([AEEA-AEEA-γGlu-Lauroyl])VVEGG-NH2) yielded an EC50 [1, 3] of 4.6 pM, an EC50 ([1]; replicate n1, read-out: Primary assay EC50 GLP-1R n1) of 4.01 pM and an EC50 [1, 4] of 5.24 pM. It also gave a remaining at 0.5 h (trypsin) of 96.8%, a remaining at 1 h (trypsin) of 95.2% and a remaining at 2 h (trypsin) of 89.9%. It also gave a remaining at 4 h (trypsin) of 85.2%, a remaining at 8 h (trypsin) of 82.9% and a remaining at 24 h (trypsin; t = 24 hr) of 74.7%. The remaining at 0.5 h (Neprilysin; recombinant neprilysin) was 95.7%, the remaining at 1 h (Neprilysin; recombinant neprilysin) was 92.8% and the remaining at 4 h (Neprilysin; recombinant neprilysin) was 95.3%. The remaining at 8 h (Neprilysin; recombinant neprilysin) was 89.7%, the remaining at 24 h (Neprilysin; recombinant neprilysin) was 89.3% and the “Percentage remaining peptide (AUC at specified time-point by RP-HPLC) upon incubation with neprilysin, t = 0” value (Neprilysin) was 100%. It also gave an EC50 (GLP-1R (INS1e assay); [5]) of 212 pM, an EC50 (GLP-1R (INS1e assay); [6]) of 243 pM and an EC50 (GLP-1R (INS1e assay); [7]) of 181 pM. For the same compound, the remaining at 0.5 h (pepsin) was 74.9%, the remaining at 1 h (pepsin) was 55.8% and the remaining at 2 h (pepsin) was 38.6%. For the same compound, the remaining at 4 h (pepsin) was 22.4%, the remaining at 8 h (pepsin) was 13.4% and the remaining at 24 h (pepsin) was 0%.

Source: patent US10414811B2, “Protease-resistant lipidated GLP-1 analogs” (MEDIMMUNE LIMITED, priority 2015, dated 2019)
